Laboratory results from ChEMBL document CHEMBL1139614, “Synthesis and antibacterial activity of novel (un)substituted benzotriazolyl oxazolidinone derivatives” (2005).
Converted amounts (≈) assume the structure as drawn. The source made the active and inactive calls. The calls are words filed in the database; no cut-off is given here.

Experiments:
Enterococcus faecalis [1] = assay: In vitro minimum inhibitory concentration against Enterococcus faecalis (ATCC 29212 and 21777); assay type: functional
Staphylococcus aureus [2] = assay: In vitro minimum inhibitory concentration against methicillin-resistant Staphylococcus aureus (ST450, ATCC 15187, ICH 1 and 37); assay type: functional
Enterococcus faecium [3] = assay: In vitro minimum inhibitory concentration against Enterococcus faecium (6A-VRE); assay type: functional
[4] = system: Salmonella enterica subsp. enterica serovar Abony; assay: In vitro minimum inhibitory concentration against Salmonella abony (NCTC 6017); assay type: functional
Enterococcus faecalis [5] = assay: In vitro minimum inhibitory concentration against Enterococcus faecalis [(VRE) ATCC 346-VRE and 5B-VRE]; assay type: functional
[6] = system: Staphylococcus epidermidis; assay: In vitro minimum inhibitory concentration against methicillin-resistant Staphylococcus epidermidis (ATCC 23760); assay type: functional
[7] = system: Staphylococcus epidermidis; assay: In vitro minimum inhibitory concentration against Staphylococcus epidermidis (ATCC 12228); assay type: functional
Pseudomonas aeruginosa [8] = assay: In vitro minimum inhibitory concentration against Pseudomonas aeruginosa (ATCC 27853); assay type: functional
Escherichia coli [9] = assay: In vitro minimum inhibitory concentration against Escherichia coli (ATCC 25922); assay type: functional
Staphylococcus aureus [10] = assay: In vitro minimum inhibitory concentration against Staphylococcus aureus (ATCC 25923 and 29213); assay type: functional
Bacillus pumilus [11] = assay: In vitro minimum inhibitory concentration against Bacillus pumilus (ATCC 14884); assay type: functional
[12] = system: Staphylococcus saprophyticus; assay: In vitro minimum inhibitory concentration against Staphylococcus saprophyticus (ATCC 15305); assay type: functional
Staphylococcus aureus [13] = assay: In vitro minimum inhibitory concentration against methicillin-resistant Staphylococcus aureus (ST450, ATCC 15187, ICH 1 and 37); Range= 0.125-0.25 ug/mL; assay type: functional
[14] = system: Staphylococcus epidermidis; assay: In vitro minimum inhibitory concentration against Staphylococcus epidermidis (ATCC 12228); Range= 0.125-0.25 ug/mL; assay type: functional
Enterococcus faecalis [15] = assay: In vitro minimum inhibitory concentration against Enterococcus faecalis [(VRE) ATCC 346-VRE and 5B-VRE]; Range= 0.125-0.25 ug/mL; assay type: functional
[16] = system: Salmonella enterica subsp. enterica serovar Abony; assay: In vitro minimum inhibitory concentration against Salmonella abony (NCTC 6017); NA= Not active in preliminary screening up to 50 ug/mL; assay type: functional, organism-based
Staphylococcus aureus [17] = assay: In vitro minimum inhibitory concentration against Staphylococcus aureus (ATCC 25923 and 29213); NA= Not active in preliminary screening up to 50 ug/mL; assay type: functional, organism-based
[18] = system: Staphylococcus saprophyticus; assay: In vitro minimum inhibitory concentration against Staphylococcus saprophyticus (ATCC 15305); NA= Not active in preliminary screening up to 50 ug/mL; assay type: functional, organism-based
Enterococcus faecalis [19] = assay: In vitro minimum inhibitory concentration against Enterococcus faecalis [(VRE) ATCC 346-VRE and 5B-VRE]; NA= Not active in preliminary screening up to 50 ug/mL; assay type: functional, organism-based
Staphylococcus aureus [20] = assay: In vitro minimum inhibitory concentration against methicillin-resistant Staphylococcus aureus (ST450, ATCC 15187, ICH 1 and 37); NA= Not active in preliminary screening up to 50 ug/mL; assay type: functional, organism-based
[21] = system: Staphylococcus epidermidis; assay: In vitro minimum inhibitory concentration against methicillin-resistant Staphylococcus epidermidis (ATCC 23760); NA= Not active in preliminary screening up to 50 ug/mL; assay type: functional, organism-based
[22] = system: Staphylococcus epidermidis; assay: In vitro minimum inhibitory concentration against Staphylococcus epidermidis (ATCC 12228); NA= Not active in preliminary screening up to 50 ug/mL; assay type: functional, organism-based
Bacillus pumilus [23] = assay: In vitro minimum inhibitory concentration against Bacillus pumilus (ATCC 14884); NA= Not active in preliminary screening up to 50 ug/mL; assay type: functional, organism-based
Enterococcus faecalis [24] = assay: In vitro minimum inhibitory concentration against Enterococcus faecalis (ATCC 29212 and 21777); NA= Not active in preliminary screening up to 50 ug/mL; assay type: functional, organism-based
Escherichia coli [25] = assay: In vitro minimum inhibitory concentration against Escherichia coli (ATCC 25922); NA= Not active in preliminary screening up to 50 ug/mL; assay type: functional, organism-based
Enterococcus faecium [26] = assay: In vitro minimum inhibitory concentration against Enterococcus faecium (6A-VRE); NA= Not active in preliminary screening up to 50 ug/mL; assay type: functional, organism-based
Pseudomonas aeruginosa [27] = assay: In vitro minimum inhibitory concentration against Pseudomonas aeruginosa (ATCC 27853); NA= Not active in preliminary screening up to 50 ug/mL; assay type: functional, organism-based
Staphylococcus aureus [28] = assay: In vitro minimum inhibitory concentration against Staphylococcus aureus (ATCC 25923 and 29213); Range 2-4 ug/mL; assay type: functional

O=C1O[C@@H](C/N=C(\S)OCCO)CN1c1ccc(-n2nnc3ccccc32)c(F)c1
MIC (Enterococcus faecalis [1]): > 16 mg/L | MIC (Staphylococcus aureus [2]): > 16 mg/L | MIC (Enterococcus faecium [3]): > 16 mg/L | MIC [4]: > 16 mg/L | MIC (Enterococcus faecalis [5]): > 16 mg/L | MIC [6]: > 16 mg/L | MIC [7]: > 16 mg/L | MIC (Pseudomonas aeruginosa [8]): > 16 mg/L | MIC (Escherichia coli [9]): > 16 mg/L | MIC (Staphylococcus aureus [10]): > 16 mg/L | MIC (Bacillus pumilus [11]): > 16 mg/L

N=C(S)NC[C@H]1CN(c2ccc(-n3nnc4ccccc43)c(F)c2)C(=O)O1
MIC (Enterococcus faecalis [1]): 0.25 mg/L (≈ 0.647 µM) | MIC (Staphylococcus aureus [2]): 0.25 mg/L (≈ 0.647 µM) | MIC (Enterococcus faecium [3]): 16 mg/L (≈ 41.4 µM) | MIC [4]: > 16 mg/L | MIC (Enterococcus faecalis [5]): 0.25 mg/L (≈ 0.647 µM) | MIC [6]: 0.125 mg/L (≈ 0.323 µM) | MIC [7]: 0.25 mg/L (≈ 0.647 µM) | MIC (Pseudomonas aeruginosa [8]): > 16 mg/L | MIC (Escherichia coli [9]): > 16 mg/L | MIC (Staphylococcus aureus [10]): 0.25 mg/L (≈ 0.647 µM) | MIC (Bacillus pumilus [11]): 0.25 mg/L (≈ 0.647 µM)

CC(=O)NC[C@H]1CN(c2ccc(N3CCOCC3)c(F)c2)C(=O)O1 [LINEZOLID]
MIC (Enterococcus faecium [3]): 2 mg/L (≈ 5.93 µM) | MIC [4]: > 16 mg/L | MIC [6]: 2 mg/L (≈ 5.93 µM) | MIC [7]: 2 mg/L (≈ 5.93 µM) | MIC (Pseudomonas aeruginosa [8]): > 16 mg/L | MIC (Escherichia coli [9]): > 16 mg/L | MIC [12]: > 16 mg/L

CN(C)CCO/C(S)=N/C[C@H]1CN(c2ccc(-n3nnc4ccccc43)c(F)c2)C(=O)O1
MIC (Enterococcus faecalis [1]): > 16 mg/L | MIC (Staphylococcus aureus [2]): > 16 mg/L | MIC (Enterococcus faecium [3]): > 16 mg/L | MIC [4]: > 16 mg/L | MIC (Enterococcus faecalis [5]): > 16 mg/L | MIC [6]: > 16 mg/L | MIC [7]: > 16 mg/L | MIC (Pseudomonas aeruginosa [8]): > 16 mg/L | MIC (Escherichia coli [9]): > 16 mg/L | MIC (Staphylococcus aureus [10]): > 16 mg/L | MIC (Bacillus pumilus [11]): > 16 mg/L | MIC [12]: > 16 mg/L

COC(=O)c1ccc2c(c1)nnn2-c1ccc(N2C[C@H](C/N=C(/N)S)OC2=O)cc1F
MIC (Enterococcus faecalis [1]): 0.125 mg/L (≈ 0.281 µM) | MIC (Staphylococcus aureus [13]): 0.25 mg/L (≈ 0.562 µM) | MIC (Enterococcus faecium [3]): 0.25 mg/L (≈ 0.562 µM) | MIC [6]: 0.125 mg/L (≈ 0.281 µM) | MIC (Pseudomonas aeruginosa [8]): > 16 mg/L | MIC [14]: 0.25 mg/L (≈ 0.562 µM) | MIC (Escherichia coli [9]): > 16 mg/L | MIC (Staphylococcus aureus [10]): 0.25 mg/L (≈ 0.562 µM) | MIC (Enterococcus faecalis [15]): 0.25 mg/L (≈ 0.562 µM) | MIC [12]: 0.25 mg/L (≈ 0.562 µM)

O=C1O[C@@H](C/N=C(\S)OCC(F)(F)F)CN1c1ccc(-n2nnc3ccccc32)c(F)c1
MIC [16]: inactive | MIC (Staphylococcus aureus [17]): inactive | MIC [18]: inactive | MIC (Enterococcus faecalis [19]): inactive | MIC (Staphylococcus aureus [20]): inactive | MIC [21]: inactive | MIC [22]: inactive | MIC (Bacillus pumilus [23]): inactive | MIC (Enterococcus faecalis [24]): inactive | MIC (Escherichia coli [25]): inactive | MIC (Enterococcus faecium [26]): inactive | MIC (Pseudomonas aeruginosa [27]): inactive

O=C1O[C@@H](CN/C(S)=N/CCO)CN1c1ccc(-n2nnc3ccccc32)c(F)c1
MIC (Enterococcus faecalis [1]): 1 mg/L (≈ 2.32 µM) | MIC (Staphylococcus aureus [2]): 2 mg/L (≈ 4.65 µM) | MIC (Enterococcus faecium [3]): 1 mg/L (≈ 2.32 µM) | MIC [4]: > 16 mg/L | MIC (Enterococcus faecalis [5]): 1 mg/L (≈ 2.32 µM) | MIC [6]: 0.5 mg/L (≈ 1.16 µM) | MIC (Staphylococcus aureus [28]): 4 mg/L (≈ 9.29 µM) | MIC [7]: 2 mg/L (≈ 4.65 µM) | MIC (Pseudomonas aeruginosa [8]): > 16 mg/L | MIC (Escherichia coli [9]): > 16 mg/L

COC(=O)c1ccc2c(c1)nnn2-c1ccc(N2C[C@H](C/N=C(\S)OC)OC2=O)cc1F
MIC (Enterococcus faecalis [1]): 0.125 mg/L (≈ 0.272 µM) | MIC (Staphylococcus aureus [2]): 0.25 mg/L (≈ 0.544 µM) | MIC (Enterococcus faecium [3]): 0.25 mg/L (≈ 0.544 µM) | MIC (Enterococcus faecalis [5]): 0.25 mg/L (≈ 0.544 µM) | MIC [6]: 0.125 mg/L (≈ 0.272 µM) | MIC [7]: 0.25 mg/L (≈ 0.544 µM) | MIC (Pseudomonas aeruginosa [8]): > 16 mg/L | MIC (Escherichia coli [9]): > 16 mg/L | MIC (Staphylococcus aureus [10]): 0.25 mg/L (≈ 0.544 µM) | MIC [12]: 0.25 mg/L (≈ 0.544 µM)

O=C1O[C@@H](CN/C(S)=N/CCCO)CN1c1ccc(-n2nnc3ccccc32)c(F)c1
MIC [16]: inactive | MIC (Staphylococcus aureus [17]): inactive | MIC [18]: inactive | MIC (Enterococcus faecalis [19]): inactive | MIC (Staphylococcus aureus [20]): inactive | MIC [21]: inactive | MIC [22]: inactive | MIC (Bacillus pumilus [23]): inactive | MIC (Enterococcus faecalis [24]): inactive | MIC (Escherichia coli [25]): inactive | MIC (Enterococcus faecium [26]): inactive | MIC (Pseudomonas aeruginosa [27]): inactive

O=C1O[C@@H](C/N=C(\S)OCC(F)(F)C(F)F)CN1c1ccc(-n2nnc3ccccc32)c(F)c1
MIC [16]: inactive | MIC (Staphylococcus aureus [17]): inactive | MIC [18]: inactive | MIC (Enterococcus faecalis [19]): inactive | MIC (Staphylococcus aureus [20]): inactive | MIC [21]: inactive | MIC [22]: inactive | MIC (Bacillus pumilus [23]): inactive | MIC (Enterococcus faecalis [24]): inactive | MIC (Escherichia coli [9]): inactive | MIC (Enterococcus faecium [26]): inactive | MIC (Pseudomonas aeruginosa [27]): inactive

CO/C(S)=N/C[C@H]1CN(c2ccc(-n3nnc4ccccc43)c(F)c2)C(=O)O1
MIC (Enterococcus faecalis [1]): 1 mg/L (≈ 2.49 µM) | MIC (Staphylococcus aureus [2]): 1 mg/L (≈ 2.49 µM) | MIC (Enterococcus faecium [3]): 1 mg/L (≈ 2.49 µM) | MIC [4]: > 16 mg/L | MIC (Enterococcus faecalis [5]): 1 mg/L (≈ 2.49 µM) | MIC [6]: 0.25 mg/L (≈ 0.623 µM) | MIC [7]: 0.25 mg/L (≈ 0.623 µM) | MIC (Pseudomonas aeruginosa [8]): > 16 mg/L | MIC (Escherichia coli [9]): > 16 mg/L | MIC (Staphylococcus aureus [10]): 1 mg/L (≈ 2.49 µM) | MIC (Bacillus pumilus [11]): > 16 mg/L

CCN(CC)CC/N=C(\S)NC[C@H]1CN(c2ccc(-n3nnc4ccccc43)c(F)c2)C(=O)O1
MIC (Enterococcus faecalis [1]): > 16 mg/L | MIC (Staphylococcus aureus [2]): > 16 mg/L | MIC (Enterococcus faecium [3]): > 16 mg/L | MIC [4]: > 16 mg/L | MIC (Enterococcus faecalis [5]): > 16 mg/L | MIC [6]: > 16 mg/L | MIC [7]: > 16 mg/L | MIC (Pseudomonas aeruginosa [8]): > 16 mg/L | MIC (Escherichia coli [9]): > 16 mg/L | MIC (Staphylococcus aureus [10]): > 16 mg/L | MIC (Bacillus pumilus [11]): > 16 mg/L
